This note sets out measurements from PMC12867150, “A fungi-derived cyclic peptide enhances Th9-mediated antitumor immunity by targeting ZAP70 and SREBP1” (The Journal of Clinical Investigation, 2025).

In assay [1] the test system is transferred CD45.1+ OT-II Th9 cells. The assay can be described thus: Flow cytometry of transferred CD45.1+ OT-II Th9 cells in spleen, LN, tumor (Figure 2B-C, S1C-E). The conditions noted are these: for Frequencies of transferred CD45.1⁺ OT-II Th9 cells among CD45⁺ cells in LN: Supplemental Figure 1D left; for number of transferred CD45.1⁺ OT-II Th9 cells among CD45⁺ cells in LN: Supplemental Figure 1D right; for CD45.1+ gate number: representative flow plot. It is filed as in vivo, mouse. The method, then: C57BL/6 mice were subcutaneously injected with 5 × 10^5 B16-OVA melanoma cells. Five days after tumor implantation, mice received an intravenous infusion of 2 × 10^6 in vitro–differentiated Th9 cells (cultured for 5 days), which were derived from OT-II CD45.1 donor mice, accompanied by 4 × 10^5 OVA peptide–pulsed DCs via the tail vein. To enhance T cell engraftment and facilitate lymphodepletion, a single intraperitoneal injection of cyclophosphamide (200 mg/kg, Sigma, catalog C0768) was administered 1 day prior to T cell transfer. Mice were euthanized at designated time points for the collection and analysis of spleens, tumor-draining lymph nodes, and tumor tissues.
Details regarding staining panels (human and mouse), reagents (including clones and catalog numbers), acquisition settings, compensation/controls, and analysis procedures are provided in Supplemental Methods.
BioLegend, Cat. No. 422301 or Mouse TruStain FcX™, BioLegend, Cat. No. 101319) for 10 minutes at 4°C. For surface marker detection, cells were stained with fluorochrome-conjugated monoclonal antibodies in 96-well V-bottom plates and incubated on ice for 30 minutes. After staining, cells were washed twice and resuspended in FACS buffer for analysis.
Prior to intracellular cytokine staining, cells were restimulated for 4 hours with PMA (Absin, Cat. No. abs9107), ionomycin (Sigma-Aldrich, Cat. No. I0634), and brefeldin A (MedChemExpress, Cat. No. HY-16592). For intracellular cytokine staining, cells were first surface-stained as described above, then fixed and permeabilized using the BD Cytofix/Cytoperm™ kit (BD Biosciences, Cat. No. 554714) according to the manufacturer ’s protocol. Intracellular proteins were stained with directly conjugated antibodies targeting IL-9, IL-17a, IL-4, IFN-γ, TNF-α, FOXP3, p-ZAP70, Perforin, and […]
Antibodies used for mouse samples included those against IL-9 (PE, clone RM9A4, Biolegend, Cat. No. 514104), IFN-γ (PE, clone XMG1.2, Biolegend, Cat. No.
Cat. No. 103138), CD4 (APC/Cy7, clone E-AB-F1353UJ, Elabscience, Cat. No.
AF18028), CD8α (PerCP/Cy5.5, clone E-AB-F1104UJ, Elabscience, Cat. No. […]
clone E-AB-F1187UH, Elabscience, Cat. No. AF19854), TNF-α (BV421, clone MP6-XT22, Biolegend, Cat. No. 506328), FOXP3 (PE, clone FJK-16s, eBioscience, Cat. No.
Perforin (APC, clone S16009A, Biolegend, Cat. No. 154303) and Granzyme B (APC, […]
clone QA16A02, Biolegend, Cat. No. 372203). […]
Figure S1. EpA enhances immune responses. […]
Representative flow-cytometric plots showing transferred CD45.1⁺ OT-II Th9 cells in spleens (C), tumor-draining lymph nodes (LNs) (D), and tumors (E); frequencies Figure S1 and absolute numbers of CD45.1⁺ OT-II Th9 cells in LNs are quantified in (D). (F– […]
Statistical analysis was performed using two-way ANOVA with Tukey’s post hoc test (A), one-way ANOVA with Tukey’s post hoc test (B) or two-tailed unpaired Student’s t-test (D and G–M). ns, not significant. *p < 0.05, **p < 0.01, ****p < 0.0001.
(also on this page, place not known: Mouse weight (g) CtrlEpA CtrlEpA CtrlEpA0 I CD45.1+ T cells (%) CtrlEpA CD4+ T cells (%) CtrlEpA CtrlEpA CtrlEpA FSC CD8 CD8 FSC FSC FSC BNumber of CD45.1+ T cells (×103 per mgĎ Number of CD4+ T cells (×104 per mgĎ DC (%)NK cells (%) NK cells (%) DC (%) Number of DC (×103 per mg) Number of NK cells (×105) Number of NK cells (×103 per mg) Number of DC (×105) FSC FSC FSC CD8 CtrlEpA CtrlEpA CtrlEpA CD8+ T cells (%) Number of CD8+ T cells (×104 per mgĎ nsns ns nsns ns 40 IL-6 (pg/ml)) […]

In assay [2] the test system is mitochondria of human Th9 CAR T cells. The assay can be described thus: MitoTracker of human Th9 CAR T cells (S9G). It is filed as cell-based. The conditions noted are these: for mitochondrial mass using Mito Tracker in human Th9 CAR-T cells: flow cytometry, Supplemental Figure 9G. The procedure:
Mitochondrial mass and membrane potential were assessed using MitoTracker™ Deep Red FM (Thermo Fisher Scientific, catalog M22426) and TMRM (tetramethylrhodamine methyl ester; Macklin, catalog T868125), respectively, following the manufacturers’ protocols. Cells were incubated with the respective dyes, washed, and subjected to flow cytometry or fluorescence microscopy analysis. For ultrastructural assessment, mitochondrial number and diameter were quantified from high-resolution transmission electron microscopy (TEM) images using ImageJ software. […]
(C) Flow-cytometric analysis of infection efficiency in Th9 cells transduced with a
CD19-directed CAR lentivirus. […]
(G) Flow-cytometric analysis of mitochondrial mass using Mito Tracker in human
Th9 CAR-T c e l l s (n = 3). […]
(H) and quantification (I) (n = 5 mice per group). Statistical analysis was performed
using one-way ANOVA with Tukey’s post hoc test (A and B), or two-tailed unpaired
Student’s t-test (E–G, and I). Repeated data are presented as mean ± SEM. *p < 0.05,
(also on this page, place not known: TP cells ANOV A 30IL-9+ cells (%) Fato Fato Fato Fato A SSC GzmB CtrlEpA MFIofMitoTracker (×102) GF NormalizedATPlevel CtrlEpA 4MFI of Mito Tracker (×105) CtrlEpA0 GzmB+ cells (%) CD4 10 20 IL-9+ cells (%) Day60 10 20 30 Ctrl)

Setting [3] is: spleens, individual mice, n = 4.

Several values for one entry are separate records, joined by “and”; a condition that tells them apart may be missing. Equal values may be shown once.

On to anteiso-C15 Leu7 surfactin [EpA], for which the Frequencies of transferred CD45.1⁺ OT-II Th9 cells among CD45⁺ cells in LN came to 25.5% in assay [1] (LN, replicate 1); 16.2% in assay [1] (LN, replicate 2); 15.5% in assay [1] (LN, replicate 3); 16.6% in assay [1] (LN, replicate 4). The “number of transferred CD45.1⁺ OT-II Th9 cells among CD45⁺ cells in LN” value was 12444.4 in assay [1] (LN, replicate 1); 12569.8 in assay [1] (LN, replicate 2); 11818.2 in assay [1] (LN, replicate 3); 11251.4 in assay [1] (LN, replicate 4). Besides, the CD45.1+ gate number was 15.5% in assay [1] (LN, Figure S1D); 11.7% in assay [1] (Spleen, Figure S1C); 6.7% in assay [1] (Tumor, Figure S1E). The “expansion of transferred cells” value in assay [1] (lymph nodes, result in words) is recorded as “moderately in the lymph nodes”; in assay [1] (spleen, result in words), “expanded robustly in the spleen”. Also, in assay [1] (setting [3]), the “Total CD45.1(%) among CD45+ cells” value is 11.1% and 9.13% and 7.88% and 11.8%. Further, in assay [1] (setting [3]), the “number of CD45.1+ T cells” value was 854404 and 834158 and 848241 and 1565169. The “CD45.1 (%) among CD4+ cells” value in assay [1] (tumors, individual mice, n = 4) is 6.68% and 1.49% and 0.81% and 0.8%. The “number of CD45.1+ OT-II Th9 cells” value in assay [1] (tumors, individual mice, n = 4) was 16 and 22 and 24 and 15. Besides, the “absolute number of transferred cells” value in assay [1] (tumors, result in words) is given as “markedly increased”. In addition, the “frequency of transferred cells” value in assay [1] (tumors, result in words) is “remained comparable”. Also, the “mitochondrial mass using Mito Tracker in human Th9 CAR-T cells” value in assay [2] (replicate 1) amounted to 3352; in assay [2] (replicate 2), 3381; in assay [2] (replicate 3), 3457. In addition, the “mitochondrial potential, Th9 CAR T” value in assay [2] (result in words) is “elevated”.
